In patent US20030104507A1, “Method for detection of ATP” (priority 2001, published 2003):

Assays:
LucPpe2m146 = assay: Stability of reagent composition with LucPpe2m146 and detergent (RT, pH 7.0); format: biochemical, Photuris pennsylvanica
Outline: (§1)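 Reagent with 50 μg/ml luciferase, luciferin, MgSO4, buffer and detergent at varying concentrations held at about 23° C; enzyme added just before first read. At timepoints, aliquots mixed 1:1 with media containing ATP and luminescence read immediately (0.5 s/well, triplicate); reaction half-lives and percent of original luminescence derived.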

LucPpy = biological target: T1, LucPpy (Photinus pyralis, UniProt P08659); assay: Stability of reagent composition with LucPpy and detergent (RT, pH 7.0); format: biochemical; conditions: for Average Relative Light Units / Percent of Luminescence Remaining: LucPpy
T1 construct: purchased Promega E170A
Outline: as §1

[1] = biological target: native firefly luciferase (Photinus pyralis, UniProt P08659); conditions: cited from earlier work
Sequence of native firefly luciferase (P08659 whole entry): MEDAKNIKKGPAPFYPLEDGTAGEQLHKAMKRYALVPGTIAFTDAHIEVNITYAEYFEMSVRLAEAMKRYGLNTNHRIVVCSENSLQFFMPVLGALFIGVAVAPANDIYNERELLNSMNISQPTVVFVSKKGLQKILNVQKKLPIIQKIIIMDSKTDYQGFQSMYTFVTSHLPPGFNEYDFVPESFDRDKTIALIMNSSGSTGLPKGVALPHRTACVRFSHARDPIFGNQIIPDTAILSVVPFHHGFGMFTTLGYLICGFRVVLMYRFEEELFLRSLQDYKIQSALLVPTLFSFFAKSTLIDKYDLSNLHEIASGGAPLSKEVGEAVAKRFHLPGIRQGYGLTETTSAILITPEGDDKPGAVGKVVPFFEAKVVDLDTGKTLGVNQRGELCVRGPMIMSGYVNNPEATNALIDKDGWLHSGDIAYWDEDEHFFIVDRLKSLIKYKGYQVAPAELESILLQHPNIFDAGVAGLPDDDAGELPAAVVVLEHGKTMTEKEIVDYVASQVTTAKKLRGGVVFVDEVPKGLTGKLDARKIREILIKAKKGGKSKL

CCCCCCCCCCCC[N+](C)(C)C.[Br-] [DTAB, dodecyltrimethylammonium bromide]
Average Relative Light Units (LucPpe2m146; LucPpe2m146, 0.02%, 1.0 min (head r67)): 28730.17 rlu | Percent of Luminescence Remaining (LucPpe2m146; LucPpe2m146, 0.02%, 1.0 min (times of Table I r67)): 100.00% | Average Relative Light Units (LucPpe2m146; LucPpe2m146, 0.02%, 34 min (head r67)): 28596.30 rlu | Percent of Luminescence Remaining (LucPpe2m146; LucPpe2m146, 0.02%, 34 min (times of Table I r67)): 99.53% | Average Relative Light Units (LucPpe2m146; LucPpe2m146, 0.02%, 65 min (head r67)): 28651.97 rlu | Percent of Luminescence Remaining (LucPpe2m146; LucPpe2m146, 0.02%, 65 min (times of Table I r67)): 99.73% | Average Relative Light Units (LucPpe2m146; LucPpe2m146, 0.02%, 115 min (head r67)): 26062.30 rlu | Percent of Luminescence Remaining (LucPpe2m146; LucPpe2m146, 0.02%, 115 min (times of Table I r67)): 90.71% | Average Relative Light Units (LucPpe2m146; LucPpe2m146, 0.02%, 175 min (head r67)): 27941.73 rlu | Percent of Luminescence Remaining (LucPpe2m146; LucPpe2m146, 0.02%, 175 min (times of Table I r67)): 97.26% | Average Relative Light Units (LucPpe2m146; LucPpe2m146, 0.02%, 238 min (head r67)): 27677.9 rlu | Percent of Luminescence Remaining (LucPpe2m146; LucPpe2m146, 0.02%, 238 min (times of Table I r67)): 96.34% | Average Relative Light Units (LucPpe2m146; LucPpe2m146, 0.02%, 286 min (head r67)): 27808.3 rlu | Percent of Luminescence Remaining (LucPpe2m146; LucPpe2m146, 0.02%, 286 min (times of Table I r67)): 96.79% | Average Relative Light Units (LucPpe2m146; LucPpe2m146, 0.1%, 1.0 min (head r54)): 20132.47 rlu | Percent of Luminescence Remaining (LucPpe2m146; LucPpe2m146, 0.1%, 1.0 min (times of Table I r54)): 100.00% | Average Relative Light Units (LucPpe2m146; LucPpe2m146, 0.1%, 34 min (head r54)): 20574.63 rlu | Percent of Luminescence Remaining (LucPpe2m146; LucPpe2m146, 0.1%, 34 min (times of Table I r54)): 102.20% | Average Relative Light Units (LucPpe2m146; LucPpe2m146, 0.1%, 65 min (head r54)): 20800.80 rlu | Percent of Luminescence Remaining (LucPpe2m146; LucPpe2m146, 0.1%, 65 min (times of Table I r54)): 103.32% | Average Relative Light Units (LucPpe2m146; LucPpe2m146, 0.1%, 115 min (head r54)): 19908.30 rlu | Percent of Luminescence Remaining (LucPpe2m146; LucPpe2m146, 0.1%, 115 min (times of Table I r54)): 98.89% | Average Relative Light Units (LucPpe2m146; LucPpe2m146, 0.1%, 175 min (head r54)): 20760.93 rlu | Percent of Luminescence Remaining (LucPpe2m146; LucPpe2m146, 0.1%, 175 min (times of Table I r54)): 103.12% | Average Relative Light Units (LucPpe2m146; LucPpe2m146, 0.1%, 238 min (head r54)): 19758.4 rlu | Percent of Luminescence Remaining (LucPpe2m146; LucPpe2m146, 0.1%, 238 min (times of Table I r54)): 98.14% | Average Relative Light Units (LucPpe2m146; LucPpe2m146, 0.1%, 286 min (head r54)): 19659.10 rlu | Percent of Luminescence Remaining (LucPpe2m146; LucPpe2m146, 0.1%, 286 min (times of Table I r54)): 97.65% | Average Relative Light Units (LucPpe2m146; LucPpe2m146, 0.5%, 15 min (head r41)): 5.496 rlu | Percent of Luminescence Remaining (LucPpe2m146; LucPpe2m146, 0.5%, 15 min (times of Table I r41)): 100.00% | Average Relative Light Units (LucPpe2m146; LucPpe2m146, 0.5%, 72 min (head r41)): 3.141 rlu | Percent of Luminescence Remaining (LucPpe2m146; LucPpe2m146, 0.5%, 72 min (times of Table I r41)): 57.16% | Average Relative Light Units (LucPpe2m146; LucPpe2m146, 0.5%, 124 min (head r41)): 2.769 rlu | Percent of Luminescence Remaining (LucPpe2m146; LucPpe2m146, 0.5%, 124 min (times of Table I r41)): 50.39% | Average Relative Light Units (LucPpe2m146; LucPpe2m146, 0.5%, 190 min (head r41)): 2.563 rlu | Percent of Luminescence Remaining (LucPpe2m146; LucPpe2m146, 0.5%, 190 min (times of Table I r41)): 46.64% | Average Relative Light Units (LucPpe2m146; LucPpe2m146, 0.5%, 251 min (head r41)): 2.766 rlu | Percent of Luminescence Remaining (LucPpe2m146; LucPpe2m146, 0.5%, 251 min (times of Table I r41)): 50.32% | Half-life of Luminescence Activity (LucPpy; Common firefly luciferase (P. pyralis), conc. 0.500): no activity | Average Relative Light Units (LucPpy; 0.02%, 0.75 min (head r32)): 4513.320 rlu | Percent of Luminescence Remaining (LucPpy; 0.02%, 0.75 min (times of Table I r32)): 100.00% | Average Relative Light Units (LucPpy; 0.02%, 38 min (head r32)): 3761.940 rlu | Percent of Luminescence Remaining (LucPpy; 0.02%, 38 min (times of Table I r32)): 99.53% | Average Relative Light Units (LucPpy; 0.02%, 70 min (head r32)): 3363.410 rlu | Percent of Luminescence Remaining (LucPpy; 0.02%, 70 min (times of Table I r32)): 74.52% | Average Relative Light Units (LucPpy; 0.02%, 94 min (head r32)): 3229.340 rlu | Percent of Luminescence Remaining (LucPpy; 0.02%, 94 min (times of Table I r32)): 71.55% | Average Relative Light Units (LucPpy; 0.02%, 122 min (head r32)): 3082.030 rlu | Percent of Luminescence Remaining (LucPpy; 0.02%, 122 min (times of Table I r32)): 68.2% | Average Relative Light Units (LucPpy; 0.1%, 0.75 min (head r18)): 0.307 rlu | Percent of Luminescence Remaining (LucPpy; 0.1%, 0.75 min (times of Table I r18)): 100.00% | Average Relative Light Units (LucPpy; 0.1%, 10 min (head r18)): 0.009 rlu | Percent of Luminescence Remaining (LucPpy; 0.1%, 10 min (times of Table I r18)): 2.93% | Average Relative Light Units (LucPpy; 0.1%, 36 min (head r18)): 0.005 rlu | Percent of Luminescence Remaining (LucPpy; 0.1%, 36 min (times of Table I r18)): 1.55% | Average Relative Light Units (LucPpy; 0.5%, 0.75 min (head r5)): 0.018 rlu | Percent of Luminescence Remaining (LucPpy; 0.5%, 0.75 min (times of Table I r5)): 100.00% | effect on native firefly luciferase [1]: inactivated
